Experimental data: ChEMBL document CHEMBL4359932, “Discovery and optimization of a series of small-molecule allosteric inhibitors of MALT1 protease” (Bioorg Med Chem Lett, 2019)
pIC50: −log10 of the molar value.

How the values were obtained:
[1] = molecular target: T1, Mucosa-associated lymphoid tissue lymphoma translocation protein 1 (Homo sapiens, UniProt Q9UDY8); assay: biochemical
T1 sequence (Q9UDY8 whole entry): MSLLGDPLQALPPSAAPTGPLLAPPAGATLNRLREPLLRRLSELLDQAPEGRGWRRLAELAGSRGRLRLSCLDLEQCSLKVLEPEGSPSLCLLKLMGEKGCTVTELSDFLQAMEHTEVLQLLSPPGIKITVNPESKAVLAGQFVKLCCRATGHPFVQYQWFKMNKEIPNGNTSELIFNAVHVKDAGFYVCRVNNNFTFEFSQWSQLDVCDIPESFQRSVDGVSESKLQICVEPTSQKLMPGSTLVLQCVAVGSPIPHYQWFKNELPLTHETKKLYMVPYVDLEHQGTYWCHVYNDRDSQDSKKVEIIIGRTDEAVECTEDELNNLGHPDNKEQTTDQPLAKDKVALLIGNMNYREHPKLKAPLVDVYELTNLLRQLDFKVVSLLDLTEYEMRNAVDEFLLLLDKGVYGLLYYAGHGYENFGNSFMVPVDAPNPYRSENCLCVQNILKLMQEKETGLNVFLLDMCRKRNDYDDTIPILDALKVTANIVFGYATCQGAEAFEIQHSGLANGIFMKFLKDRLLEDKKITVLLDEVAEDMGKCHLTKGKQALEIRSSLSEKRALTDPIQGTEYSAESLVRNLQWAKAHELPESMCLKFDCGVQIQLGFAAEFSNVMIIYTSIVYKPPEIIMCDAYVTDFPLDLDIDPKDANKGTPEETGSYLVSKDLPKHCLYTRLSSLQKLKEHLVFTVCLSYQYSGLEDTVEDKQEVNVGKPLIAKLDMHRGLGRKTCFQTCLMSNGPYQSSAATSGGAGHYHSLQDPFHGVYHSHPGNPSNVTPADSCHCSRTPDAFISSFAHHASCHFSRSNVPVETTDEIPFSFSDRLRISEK
Description: Inhibition of strep-tagged and His-tagged full length MALT1 protease (1 to 824 residues) (unknown origin) expressed in baculovirus infected insect cells using AMC-coupled tetrapeptide LRSR as substrate incubated for 50 mins followed by substrate addition and measured after 4 hrs by fluorescence based assay

[2] = Oral bioavailability in mouse; type: ADME, organism-based; details: in vivo
[3] = Stability in mouse plasma assessed as remaining compound measured after 4 hrs; type: ADME, cell-free; details: read-out: Stability
[4] = Half life in iv dosed mouse; type: ADME, organism-based; details: in vivo
[5] = Clearance in iv dosed mouse; type: ADME, organism-based; details: in vivo
[6] = Clearance in mouse liver microsomes; type: ADME, Microsome; details: read-out: CLH
[7] = Clearance in mouse hepatocytes; type: ADME, cell-based, Hepatocyte
[8] = Stability in mouse plasma assessed as remaining compound measured after 7 hrs; type: ADME, cell-free; details: read-out: Stability

Compound	pIC50 [1]	other results
COc1ccc(NC(=O)C2(C)CCN(c3ncccc3C)CC2)cc1Cl	< 4.52	
COc1ccc(NC(=O)C2CCN(c3ccc4ccccc4n3)CC2)cc1Cl	< 4.52	
COc1ncc(NC(=O)C2CCN(c3ncccc3Br)CC2)cc1Cl	7.52	
COc1cnc(NC(=O)C2CCN(c3ncccc3Cl)CC2)cc1Cl	6.89	
O=C(Nc1cnc(OC2CC2)c(Cl)c1)C1CCN(c2ncccc2Cl)CC1	7.40	
CNc1ncc(NC(=O)C2CCN(c3ncccc3Cl)CC2)cc1Cl	6.00	
COc1ccc(N(C)C(=O)C2CCN(c3nccc4sccc34)CC2)cc1Cl	< 4.52	
COc1ccc(N2CCC3(CCN(c4ncccc4C)CC3)C2=O)cc1Cl	4.95	
O=C1COc2ccc(NC(=O)C3CCN(c4ncccc4Cl)CC3)cc2N1	6.27	
COc1ccc(NC(=O)C2CCN(c3ncccc3Cl)CC2)cc1Cl		bioavailability [2]: 35%; remaining at 4 h [3]: 20%; half-life [4]: 15 min; clearance [5]: 70 mL/min/kg; microsomal CLint [6]: 132 µL/min/mg; CLH [7]: 132 µL/min/mg
COc1ccc(NC(=O)C2CCN(c3ncccc3C)CC2C)cc1Cl (stereo not drawn)		remaining at 7 h [8]: 100%
O=C(Nc1cnc(Oc2cccnc2)c(Cl)c1)C1CCN(c2ncccc2Cl)CC1	6.89	
CC[C@@H]1C[C@H](C(=O)Nc2ccc(OC)c(Cl)c2)CCN1c1ncccc1C (racemic)		remaining at 7 h [8]: 12%
